# Assay results taken from patent publication US9572785B2, “DP2 antagonist and uses thereof” (Brickell Biotech, Inc., priority 2009, dated 2017).
# Read-outs that look alike come from different tables or passages of the source.
# Columns and labels:
# DP2 receptor [1] = target: T1, DP2 receptor (Homo sapiens, UniProt Q9Y5Y4); experiment: Whole blood eosinophil shape change (ESC) assay, human; format: cell-based; set-up: endogenous in cells; host or cells: eosinophils in human whole blood
# T1 sequence (Q9Y5Y4 1-395): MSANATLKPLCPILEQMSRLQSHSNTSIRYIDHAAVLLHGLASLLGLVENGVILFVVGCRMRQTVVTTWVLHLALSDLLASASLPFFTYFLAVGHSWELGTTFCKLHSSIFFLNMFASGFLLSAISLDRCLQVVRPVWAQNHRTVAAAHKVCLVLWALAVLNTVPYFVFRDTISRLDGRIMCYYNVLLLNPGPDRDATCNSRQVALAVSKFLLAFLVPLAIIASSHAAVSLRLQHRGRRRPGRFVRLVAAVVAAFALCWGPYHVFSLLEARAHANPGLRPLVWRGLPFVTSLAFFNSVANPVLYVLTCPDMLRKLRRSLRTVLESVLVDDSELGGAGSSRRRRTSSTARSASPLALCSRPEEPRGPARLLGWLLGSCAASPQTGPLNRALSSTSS
# mouse DP2 receptor = target: T2, mouse DP2 receptor (Mus musculus, UniProt Q9Z2J6); experiment: DP2 radioligand membrane binding assay, mouse
# T2 construct: expressed in transfected cells
# T2 sequence (Q9Z2J6 1-382): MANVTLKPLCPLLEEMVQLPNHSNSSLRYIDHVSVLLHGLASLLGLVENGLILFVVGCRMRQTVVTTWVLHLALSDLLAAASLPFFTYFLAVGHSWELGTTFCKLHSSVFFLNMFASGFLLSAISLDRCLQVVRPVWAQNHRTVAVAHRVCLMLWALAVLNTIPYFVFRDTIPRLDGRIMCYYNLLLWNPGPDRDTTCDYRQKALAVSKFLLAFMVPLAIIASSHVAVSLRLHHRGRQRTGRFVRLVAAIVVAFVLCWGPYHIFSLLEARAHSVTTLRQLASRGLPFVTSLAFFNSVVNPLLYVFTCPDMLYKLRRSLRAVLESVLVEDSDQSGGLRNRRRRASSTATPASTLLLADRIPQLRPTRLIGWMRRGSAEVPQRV
# Experimental: HEK293 cells stably expressing recombinant human DP2 are resuspended in 10 mM Hepes, 7.4 containing 1 mM DTT, lysed and centrifuged at 75,000×g to pellet the membranes. The membranes are resuspended in 10 mM Hepes, 7.4 containing 1 mM DTT and 10% glycerol to approximately 5 mg protein/ml. […] The reactions are terminated by rapid filtration through Whatman GF/C glass fibre filter plates. […] After harvesting, the filter plates are washed 3 times with 1 ml cold Wash Buffer then dried. Scintillant is then added to the plates and the radioactivity retained on the filters is determined on a Packard TopCount (Perkin Elmer). Specific binding is determined as total radioactive binding minus non-specific binding in the presence of 10 μM PGD2. IC50s were determined using GraphPad prism analysis of drug titration curves. Mouse, rat and guinea pig DP2 receptors were also investigated.
# in vivo = details: Hartley, guinea pig, in vivo
# DP2 receptor [2] = target: T1, DP2 receptor; experiment: In vitro scintillation proximity assay (SPA) off-rate; format: binding; details: compared with PGD2
# physchem = details: water, 25 °C, pH 6.1, water, thermodynamic from solid
# [3] = Properties of the amorphous phase; format: physicochemical
# clinical = details: human
compound,measurement,setting,value
"CCN(Cc1cc(C(F)(F)F)ccc1-c1cc(CC(=O)O)ccc1OC)C(=O)NCc1ccccc1 [Compound 1, [2′-(3-benzyl-1-ethyl-ureidomethyl)-6-methoxy-4′-trifluoromethyl-biphenyl-3-yl]-acetic acid]",IC90,DP2 receptor [1],7.5 nM
same,IC50,"DP2 receptor [1]; read-out: IC50, PGD2-induced eosinophil shape change",2.7 nM
same,IC50,"mouse DP2 receptor; mouse DP2, membrane binding, read-out: average IC50, inhibition of radiolabeled PGD2 binding",7.8 nM
same,IC50,"mouse DP2 receptor; mouse DP2 receptor, in the presence of 0.2% mouse serum albumin, read-out: IC50, radioligand membrane binding",20.1 nM
same,concentration at 18.5 h,in vivo,< 40 nM
same,off-rate from the DP2 receptor,DP2 receptor [2],longer off-rate than PGD2
same,solubility at 24 h,physchem,210 µg/mL
same,solubility in water,[3],sparingly soluble in water
same,"hygroscopicity, weight change",[3]; from 0% to 90% relative humidity,1.7%
same,half-life,clinical; in vivo,6.6 to 11 h
same,AUC(0-t),"clinical; plasma, oral, 30 mg",32.3 ng·h/mL
same,Cmax,"clinical; plasma, oral, 30 mg",16 ng/mL
same,AUC(0-t),"clinical; plasma, po, 30 mg",24.1 ng·h/mL
same,Cmax,"clinical; plasma, po, 30 mg",11.2 ng/mL
same,half-life,"clinical; plasma, po, 30 mg",6.6 h
same,AUC(0-t),"clinical; plasma, po, 100 mg",118 ng·h/mL
same,Cmax,"clinical; plasma, po, 100 mg",81 ng/mL
same,half-life,"clinical; plasma, po, 100 mg",8.1 h
same,AUC(0-t),"clinical; plasma, po, 300 mg",1420 ng·h/mL
same,Cmax,"clinical; plasma, po, 300 mg",1400 ng/mL
same,half-life,"clinical; plasma, po, 300 mg",7 h
